Experimental data taken from ChEMBL document CHEMBL5579842, “Modulation of endogenous opioid signaling by inhibitors of puromycin-sensitive aminopeptidase” (Eur J Med Chem, 2024).
Activity calls are given as the source filed them. The rule behind the calls is not given here.

Tests used:
Vero = experiment: Inhibition of protein synthesis in African green monkey Vero cells at 25 uM relative to control; type: functional; settings: Chlorocebus sabaeus
[1] = biological target: Puromycin-sensitive aminopeptidase (Homo sapiens, UniProt P55786); experiment: Inhibition of human N-terminal His-tagged Puromycin-sensitive aminopeptidase extracted from Escherichia coli BL21 STAR (DE3) using alanine-4-methoxy-2-naphthylamide as substrate incubated for 30 mins by SpectraMax microplate reader analysis
Puromycin-sensitive aminopeptidase, sequence (P55786 whole entry): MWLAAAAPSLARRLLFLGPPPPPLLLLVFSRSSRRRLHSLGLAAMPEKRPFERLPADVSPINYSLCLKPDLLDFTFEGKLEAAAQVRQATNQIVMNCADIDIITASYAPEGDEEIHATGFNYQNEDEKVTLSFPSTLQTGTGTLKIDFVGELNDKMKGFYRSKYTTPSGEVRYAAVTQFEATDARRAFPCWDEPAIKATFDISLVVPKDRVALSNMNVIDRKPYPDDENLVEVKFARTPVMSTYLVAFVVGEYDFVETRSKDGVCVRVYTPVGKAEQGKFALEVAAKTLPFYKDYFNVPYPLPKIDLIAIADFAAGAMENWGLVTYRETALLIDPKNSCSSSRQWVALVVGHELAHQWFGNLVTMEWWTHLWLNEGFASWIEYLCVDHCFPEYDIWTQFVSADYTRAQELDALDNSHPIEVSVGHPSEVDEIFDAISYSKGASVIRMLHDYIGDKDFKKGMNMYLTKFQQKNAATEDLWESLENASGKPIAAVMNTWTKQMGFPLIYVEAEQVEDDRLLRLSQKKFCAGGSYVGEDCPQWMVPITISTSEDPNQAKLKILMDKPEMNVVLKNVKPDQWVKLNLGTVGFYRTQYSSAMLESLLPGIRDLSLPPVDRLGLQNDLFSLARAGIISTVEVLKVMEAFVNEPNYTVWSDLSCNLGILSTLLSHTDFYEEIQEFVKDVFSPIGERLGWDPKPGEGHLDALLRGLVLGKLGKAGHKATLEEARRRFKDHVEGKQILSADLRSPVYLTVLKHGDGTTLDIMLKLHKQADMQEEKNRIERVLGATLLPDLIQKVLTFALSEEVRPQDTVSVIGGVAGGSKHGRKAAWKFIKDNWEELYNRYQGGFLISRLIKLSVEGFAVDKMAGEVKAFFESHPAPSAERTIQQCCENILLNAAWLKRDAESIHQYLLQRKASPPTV

Aminopeptidase N [2] = biological target: T1, Aminopeptidase N (Homo sapiens, UniProt P15144); experiment: Inhibition of Aminopeptidase N (unknown origin) using Ala-AMC as substrate at 10 uM incubated for 30 mins by SpectraMax microplate reader analysis relative to control
T1 sequence (P15144 whole entry): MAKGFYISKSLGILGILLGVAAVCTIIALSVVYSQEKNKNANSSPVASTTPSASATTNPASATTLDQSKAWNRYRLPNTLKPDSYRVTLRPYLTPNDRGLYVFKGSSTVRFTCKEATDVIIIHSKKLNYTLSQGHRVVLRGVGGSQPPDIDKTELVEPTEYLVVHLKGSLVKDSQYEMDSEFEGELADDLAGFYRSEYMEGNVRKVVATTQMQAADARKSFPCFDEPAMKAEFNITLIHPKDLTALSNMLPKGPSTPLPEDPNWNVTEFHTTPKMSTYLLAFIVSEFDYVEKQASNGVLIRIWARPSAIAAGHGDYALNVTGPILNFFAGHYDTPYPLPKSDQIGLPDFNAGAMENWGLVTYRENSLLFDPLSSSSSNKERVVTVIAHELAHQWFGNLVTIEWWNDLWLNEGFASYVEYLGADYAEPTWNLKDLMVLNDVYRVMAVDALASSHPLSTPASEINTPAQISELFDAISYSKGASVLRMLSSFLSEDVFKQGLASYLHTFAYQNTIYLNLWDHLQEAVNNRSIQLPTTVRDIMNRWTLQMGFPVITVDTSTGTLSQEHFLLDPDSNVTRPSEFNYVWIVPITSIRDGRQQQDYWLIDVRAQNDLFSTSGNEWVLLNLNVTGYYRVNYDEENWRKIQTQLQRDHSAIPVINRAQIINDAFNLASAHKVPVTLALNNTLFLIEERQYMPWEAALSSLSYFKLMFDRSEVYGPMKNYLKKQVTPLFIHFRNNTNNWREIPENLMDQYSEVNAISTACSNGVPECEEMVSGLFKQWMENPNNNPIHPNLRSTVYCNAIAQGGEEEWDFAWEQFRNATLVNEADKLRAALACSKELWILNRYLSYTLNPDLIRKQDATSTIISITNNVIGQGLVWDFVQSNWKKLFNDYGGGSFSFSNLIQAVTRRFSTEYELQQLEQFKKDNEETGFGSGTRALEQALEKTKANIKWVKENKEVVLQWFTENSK

[3] = Cytotoxicity against African green monkey Vero cells by MTT assay; type: toxicity, cell-based; settings: chlorocebus sabaeus
Aminopeptidase N [4] = biological target: T1, Aminopeptidase N; experiment: Inhibition of Aminopeptidase N (unknown origin) using Ala-AMC as substrate incubated for 30 mins by SpectraMax microplate reader analysis
Mus musculus [5] = experiment: Antinociceptive activity in CF-1 mouse assessed as increase in maximal possible effect at 50 to 100 ug,icv administration in presence of naloxone measured after 15 mins by hot plate assay; type: functional, organism-based; settings: dose 50-100 µg
Mus musculus [6] = experiment: Antinociceptive activity in CF-1 mouse assessed as increase in maximal possible effect at 50 to 100 ug,icv administration in presence of naloxone measured after 65 mins by tail-flick test; type: functional, organism-based; settings: dose 50-100 µg
Mus musculus [7] = experiment: Antinociceptive activity in CF-1 mouse assessed as increase in Leu-enkephalin level in brain at 50 to 100 ug,icv administration in presence of KCL measured after 65 mins by LC-MS/MS analysis; type: functional, organism-based; settings: dose 50-100 µg
Mus musculus [8] = experiment: Antinociceptive activity in CF-1 mouse assessed as increase in maximal possible effect at 50 to 100 ug,icv administration in presence of Met-enkephalin measured after 65 mins by hot plate assay; type: functional, organism-based; settings: dose 50-100 µg
Mus musculus [9] = experiment: Antinociceptive activity in CF-1 mouse assessed as analgesic effect at ip administration measured after 15 mins by hot plate assay; type: functional, organism-based
Mus musculus [10] = experiment: Antinociceptive activity in CF-1 mouse assessed as increase in maximal possible effect at 50 to 100 ug,icv administration in presence of naloxone measured after 15 mins by tail-flick test; type: functional, organism-based; settings: dose 50-100 µg
Mus musculus [11] = experiment: Antinociceptive activity in CF-1 mouse assessed as analgesic effect at 50 to 100 ug,icv administration measured after 15 mins by hot plate assay; type: functional, organism-based; settings: dose 50-100 µg
Mus musculus [12] = experiment: Antinociceptive activity in CF-1 mouse assessed as increase in maximal possible effect at 50 to 100 ug,icv administration in presence of Met-enkephalin measured after 15 mins by hot plate assay; type: functional, organism-based; settings: dose 50-100 µg
Mus musculus [13] = experiment: Antinociceptive activity in CF-1 mouse assessed as increase in maximal possible effect at 50 to 100 ug,icv administration in presence of Met-enkephalin measured after 65 mins by tail-flick test; type: functional, organism-based; settings: dose 50-100 µg
Mus musculus [14] = experiment: Antinociceptive activity in CF-1 mouse assessed as increase in maximal possible effect at 50 to 100 ug,icv administration measured after 60 mins by tail-flick test; type: functional, organism-based; settings: dose 50-100 µg
Mus musculus [15] = experiment: Antinociceptive activity in CF-1 mouse assessed as increase in maximal possible effect at 50 to 100 ug,icv administration in presence of Met-enkephalin measured after 15 mins by tail-flick test; type: functional, organism-based; settings: dose 50-100 µg
[16] = Stability in mouse plasma assessed as compound remaining at 1 uM measured after 24 hr by LC-MS/MS analysis relative to control; type: ADME, cell-free
Mus musculus [17] = experiment: Antinociceptive activity in CF-1 mouse assessed as increase in maximal possible effect at 50 to 100 ug,icv administration measured after 15 mins by tail-flick test; type: functional, organism-based; settings: dose 50-100 µg
Mus musculus [18] = experiment: Antinociceptive activity in CF-1 mouse assessed as increase in MERF level in brain at 50 to 100 ug,icv administration in presence of KCL measured after 65 mins by LC-MS/MS analysis; type: functional, organism-based; settings: dose 50-100 µg
Mus musculus [19] = experiment: Antinociceptive activity in CF-1 mouse assessed as analgesic effect at ip administration measured after 60 mins by tail-flick test; type: functional, organism-based
Mus musculus [20] = experiment: Antinociceptive activity in CF-1 mouse assessed as analgesic effect at 50 to 100 ug,icv administration measured after 60 mins by tail-flick test; type: functional, organism-based; settings: dose 50-100 µg
Mus musculus [21] = experiment: Antinociceptive activity in CF-1 mouse assessed as analgesic effect at 50 to 100 ug,icv administration measured after 45 mins by tail-flick test; type: functional, organism-based; settings: dose 50-100 µg
Mus musculus [22] = experiment: Antinociceptive activity in CF-1 mouse assessed as increase in Met-enkephalin level in brain at 50 to 100 ug,icv administration in presence of KCL measured after 65 mins by LC-MS/MS analysis; type: functional, organism-based; settings: dose 50-100 µg
Mus musculus [23] = experiment: Antinociceptive activity in CF-1 mouse assessed as increase in maximal possible effect at 50 to 100 ug,icv administration in presence of naloxone measured after 65 mins by hot plate assay; type: functional, organism-based; settings: dose 50-100 µg

## O=C(O)CNC(=O)C(CS)Cc1ccccc1 (centres undefined) [THIORPHAN]
Vero
  inhibition at 25 µM: 70.3%
[1]
  IC50: 57.3 µM
Aminopeptidase N [2]
  inhibition: 0%
[3]
  CC50: > 100 µM
Aminopeptidase N [4]
  IC50: > 100 µM

## COc1ccc(C[C@H](N)C(=O)N[C@H]2[C@@H](O)[C@H](n3cnc4c(N(C)C)ncnc43)O[C@@H]2CO)cc1 [PUROMYCIN]
Vero
  inhibition at 25 µM: 99%
[3]
  CC50: 2.76 µM

## CC(C)C[C@@H](C(=O)N[C@H](C(=O)OC1CCCC1)c1ccccc1)[C@H](O)C(=O)NO [TOSEDOSTAT]
Vero
  inhibition at 25 µM: 34.5%
[3]
  CC50: 12.7 µM

## COc1ccc(C[C@H](N)C(=O)N[C@H]2[C@@H](O)[C@H](n3cnc4c(N(C)C)ncnc43)O[C@@H]2CCl)cc1
Vero
  inhibition at 25 µM: 26.1%
Aminopeptidase N [4]
  IC50: > 100 µM

## CN(C)c1ncnc2c1ncn2[C@@H]1O[C@H](CO)[C@@H](NC(=O)[C@H](N)CSC(c2ccccc2)c2ccccc2)[C@H]1O
Vero
  inhibition at 25 µM: 0%
[3]
  CC50: 46 µM

## CN(C)c1ncnc2c1ncn2[C@@H]1O[C@H](CCl)[C@@H](NC(=O)[C@@H](N)CSC(c2ccccc2)c2ccccc2)[C@H]1O
Mus musculus [5]
  Activity: inactive
Vero
  inhibition at 25 µM: 0%
Mus musculus [6]
  Activity: inactive
Mus musculus [7]
  Activity: Active
Mus musculus [8]
  Activity: Active
Mus musculus [9]
  Activity: inactive
Mus musculus [10]
  Activity: inactive
Mus musculus [11]
  Activity: Active
[1]
  IC50: 0.007 µM
Aminopeptidase N [2]
  inhibition: 55.8%
Mus musculus [12]
  Activity: Active
Mus musculus [13]
  Activity: Active
Mus musculus [14]
  Activity: Active
Mus musculus [15]
  Activity: Active
[16]
  Stability: 116.7%
Mus musculus [17]
  Activity: Active
[3]
  CC50: > 100 µM
Mus musculus [18]
  Activity: Active
Aminopeptidase N [4]
  IC50: 2.6 µM
Mus musculus [19]
  Activity: inactive
Mus musculus [20]
  Activity: Active
Mus musculus [21]
  Activity: Active
Mus musculus [22]
  Activity: inactive
Mus musculus [23]
  Activity: inactive

## CN(C)c1ncnc2c1ncn2[C@@H]1O[C@H](CCl)[C@@H](NC(=O)[C@@H](CSC(c2ccccc2)c2ccccc2)NC(=O)OC(C)(C)C)[C@H]1O
Vero
  inhibition at 25 µM: 0%
Aminopeptidase N [2]
  inhibition: 0%
[3]
  CC50: 67.4 µM

## CN(C)c1ncnc2c1ncn2[C@@H]1O[C@H](CCl)[C@@H](NC(=O)[C@H](CSC(c2ccccc2)c2ccccc2)NC(=O)OC(C)(C)C)[C@H]1O
Vero
  inhibition at 25 µM: 3%
Aminopeptidase N [2]
  inhibition: 4.6%
[3]
  CC50: > 100 µM

## CN(C)c1ncnc2c1ncn2[C@@H]1O[C@H](CO)[C@@H](NC(=O)[C@@H](N)CSC(c2ccccc2)c2ccccc2)[C@H]1O
Vero
  inhibition at 25 µM: 0%
[1]
  IC50: 0.007 µM
[3]
  CC50: > 100 µM

## CC(C)C[C@H](NC(=O)[C@@H](O)[C@H](N)Cc1ccccc1)C(=O)O [UBENIMEX]
Vero
  inhibition at 25 µM: 28%
[3]
  CC50: 25 µM

## CN(C)c1ncnc2c1ncn2[C@@H]1O[C@H](CO)[C@@H](NC(=O)[C@@H](N)CSC23CC4CC(CC(C4)C2)C3)[C@H]1O
Vero
  inhibition at 25 µM: 24%
Aminopeptidase N [2]
  inhibition: 99.1%
[3]
  CC50: 17.6 µM

## CN(C)c1ncnc2c1ncn2[C@@H]1O[C@H](CCl)[C@@H](NC(=O)[C@H](N)CSC(c2ccccc2)c2ccccc2)[C@H]1O
Vero
  inhibition at 25 µM: 0%
Aminopeptidase N [2]
  inhibition: 38.9%

## CN(C)c1ncnc2c1ncn2[C@@H]1O[C@H](CCl)[C@@H](NC(=O)[C@@H](N)CSC23CC4CC(CC(C4)C2)C3)[C@H]1O
Vero
  inhibition at 25 µM: 10.4%
[1]
  IC50: 0.005 µM
Aminopeptidase N [2]
  inhibition: 99.1%
Aminopeptidase N [4]
  IC50: 0.084 µM

## CN(C)c1ncnc2c1ncn2[C@@H]1O[C@H](CCl)[C@@H](NC(=O)[C@H](CSC23CC4CC(CC(C4)C2)C3)NC(=O)OC(C)(C)C)[C@H]1O
Vero
  inhibition at 25 µM: 22.1%
Aminopeptidase N [2]
  inhibition: 0%
